Assay results from the METLIN SMRT retention time set (Domingo-Almenara et al. 2019).

Experiment: gradient 5% acetonitrile 3 min, to 50% in 2 min, to 85% in 15 min, held 3 min, 100 µL/min
Conditions: column: Zorbax Extend-C18 2.1 x 50 mm; eluents: water / acetonitrile, 0.1% formic acid
In short: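 Standards, all pure, were combined into mixtures of ~100 molecules and run at 100 μL/min on a Zorbax Extend-C18 column (2.1 × 50 mm, 1.8 μm) with water and acetonitrile, each containing 0.1% formic acid. A coupled quadrupole time-of-flight mass spectrometer operated in positive and negative ionization mode. Retention time values come from computationally picked adduct peaks, each inspected manually.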

Row | Structure (SMILES) | RP-LC retention time
1 | Cc1ccc(-c2nc(C3CCN(S(=O)(=O)c4ccc5c(c4)CCC5)CC3)no2)cc1 | 1310 s
2 | Cc1ccc(CNC(=O)c2cc3c(s2)N(C)CCC3)cc1 | 977 s
3 | CCC(=O)N(CC(=O)N1CCc2sccc2C1COc1cccc(OC)c1)CC1CCCO1 (configuration not stated) | 858 s
4 | O=C(c1nnc(-c2ccc(S(=O)(=O)N3CCCC3)cc2)o1)N1CCCCC1 | 847 s
5 | Cc1ccccc1CN1CCN(CC(=O)NCc2ccc3c(c2)OCO3)C(=O)C1=O | 715 s
6 | Cc1nnc(C2CC3(CCN(CC(C)C)CC3)CN2Cc2ccccc2)o1 (configuration not stated) | 566 s
7 | CS(=O)(=O)N1CCC(OC2CCN(C(=O)Nc3ccccc3C(F)(F)F)CC2)CC1 | 768 s
8 | O=C(NCc1cccc(F)c1)C1CCN(c2cnc3nccnc3c2)CC1 | 680 s
9 | Cc1oc(-c2[nH]ncc2C(=O)N2CCCCC2)cc1S(=O)(=O)Nc1cccc(Cl)c1 | 796 s
10 | CCOC(=O)c1ccc(N2CC3=C(C2=O)C(c2ccc(OC)cc2)NC(=O)N3C)cc1 (configuration not stated) | 878 s
11 | CN1C(=O)c2cc(C(=O)NCCN3CCCC3)nn2CC1(C)C(=O)NCc1ccc(F)cc1 (configuration not stated) | 580 s
12 | O=C(Cn1nc2c(N3CCc4ccccc4C3)nccn2c1=O)NC1CCCC1 | 793 s
13 | Cc1cc(C(=O)NC2CC2)nn1C | 600 s
14 | CN1CCN(CCCNC(=O)CN2C(=O)C3CCCCN3c3ccc(C(=O)N(C)C)cc32)CC1 (configuration not stated) | 572 s
15 | Cc1occc1C(=O)N1CCCn2ccnc2C1C(C)C (configuration not stated) | 574 s
16 | O=S(=O)(c1cc(-c2nnc(C3CC3)o2)co1)N1CCN(C2CCCCC2)CC1 | 640 s

Row | Structure (SMILES) | RP-LC retention time
17 | COc1ccc(Cl)cc1NC(=O)CN1C(=O)NC2(CCCCC2)C1=O | 831 s
18 | Cc1ccc(N2CC(c3noc(-c4ccc(F)cc4Cl)n3)CC2=O)cc1 (configuration not stated) | 1060 s
19 | O=C(COc1ccc(F)cc1)N1CCCC1c1nc(-c2ccc(F)cc2F)no1 (configuration not stated) | 950 s
20 | COc1cc2c3c(c1OC)-c1cc4c(cc1CC3(C#N)N(C(=O)c1ccccc1)CC2)OCO4 (configuration not stated) | 987 s
21 | Cc1nnsc1C(=O)N1CC2CC(C1)c1cccc(=O)n1C2 (configuration not stated) | 551 s
22 | CC(C)n1c(=O)sc2cc(S(=O)(=O)N3CCC(C(=O)Nc4ccc(F)cc4)CC3)ccc21 | 973 s
23 | CCc1ccc(C2=C(C)C(N3CCC(C(=O)NCCc4ccco4)CC3)=NS2(=O)=O)cc1 | 882 s
24 | NC(=O)c1nnn(Cc2ccccc2F)c1N | 596 s
25 | CC1CCN(c2ncc(S(=O)(=O)c3ccc(C(C)C)cc3)c(N)n2)CC1 | 1240 s
26 | CCN(CC)C(=O)N1CCCC1Cc1noc(-c2cccnc2)n1 (configuration not stated) | 712 s
27 | O=C(CCC1CCCN(S(=O)(=O)c2ccc(F)cc2)C1)NC1CCS(=O)(=O)C1 (configuration not stated) | 731 s
28 | CCN(CC)c1nc(C(=O)NCCN2CCN(C)CC2)nc2nc(C)cc(C)c12 | 542 s
29 | CC(C)(C)C(=O)Nc1nnc(-c2cccs2)o1 | 652 s
30 | COc1ccc(-c2n[nH]c3c2C(c2ccc(OC)c(OC)c2)NC3=O)cc1 (configuration not stated) | 637 s
31 | COc1cc([C@@H]2c3cc4c(cc3[C@H](O)[C@@H](CO)[C@@H]2C(=O)NCC2CC2)OCO4)cc(OC)c1OC | 666 s

The next lines start with the values.

Row | RP-LC retention time | Structure (SMILES)
32 | 695 s | CCOc1coc(C(=O)Nc2cccc(F)c2)cc1=O
33 | 724 s | O=C1NC2(CCN(C(=O)NCc3ccccc3)CC2)Nc2c(Cl)cccc21
34 | 782 s | Cc1nn2c(CNC(=O)c3ccsc3)c(-c3ccccc3)nc2s1
35 | 892 s | Cc1nc(-c2csc(S(=O)(=O)N3CCCC(C(=O)NCc4ccc(F)cc4)C3)c2)no1 (configuration not stated)
36 | 1350 s | CCOc1ccc(-c2nc(NC(=O)Cc3csc(COc4cc(C)ccc4C)n3)sc2C)cc1
37 | 896 s | CSc1ccc(-c2nc3cc(C)ccn3c2NC2CCCCC2)cc1
38 | 574 s | CC(NC(=O)c1ccccc1F)C(=O)N1CCN(c2ccccn2)CC1 (configuration not stated)
39 | 890 s | Cc1nnc(SCCC(=O)Nc2nc(-c3ccccc3)ns2)s1
40 | 1130 s | O=C(Nc1ccc2ccccc2c1)c1ccc(Cl)cc1Cl
41 | 771 s | CN(CC1COCCO1)c1ccc(C(=O)O)cc1NC(=O)c1ccccc1Cl (configuration not stated)
42 | 625 s | COc1ccc(CSc2nc3ccccc3[nH]2)cc1
43 | 902 s | COC(=O)c1cc2c(=O)n(Cc3ccccc3Cl)ccc2nc1C
44 | 886 s | CCc1nn2c(CNS(=O)(=O)c3ccc(OC)cc3)c(-c3ccccc3)nc2s1
45 | 1010 s | CCc1cccc(NC(=O)Cn2nc3c(Sc4ccccc4)nccn3c2=O)c1
46 | 726 s | COc1ccc(-c2nc3cc(C)ccn3c2NC(=O)Cc2cccc3ccccc23)cc1
47 | 891 s | Cc1oc2ccn(Cc3ccccc3F)c(=O)c2c1C(=O)NCC1CCCO1 (configuration not stated)
48 | 546 s | Cc1ccccc1-c1ccc(N2CCC(C(=O)Nc3cccnc3)CC2)nn1
49 | 995 s | COc1cccc(-c2nc(-c3cn(Cc4cccc(F)c4)nn3)no2)c1

Row | RP-LC retention time | Structure (SMILES)
50 | 854 s | CC(C)c1ccc(NC(=O)Cc2nnc(-c3ccc4ncccc4c3)o2)cc1
51 | 1060 s | Cc1ccc(N2C(=O)N(Cc3ccccc3)S(=O)(=O)c3cccnc32)cc1
52 | 823 s | O=C(Cn1cnc2nc3c(cc2c1=O)CCCC3)Nc1cccc(C(F)(F)F)c1
53 | 849 s | O=C(CN1C(=O)CCS(=O)(=O)c2ccccc21)Nc1cccc(C(F)(F)F)c1
54 | 785 s | CCCn1nc(CNC(=O)c2cccs2)c2ccccc21
55 | 924 s | Cc1ccc(S(=O)(=O)N2CCC(CCNC(=O)NCCc3ccccc3)CC2)cc1
56 | 742 s | COCCOC(=O)C1=C(C)NC(=O)NC1c1cn(-c2ccccc2)nc1-c1cccs1 (configuration not stated)
57 | 887 s | Cc1ccc(CNC(=O)N2C[C@@H](F)C[C@H]2C(=O)N2CCc3ccccc3C2)cc1
58 | 615 s | COC(=O)CC1CN=C(Nc2nc(C)c3ccccc3n2)NC1=O (configuration not stated)
59 | 564 s | Cn1c(CNC(=O)c2cn3ccccc3n2)nc2ccccc21
60 | 572 s | CC(NC(=O)Nc1ccccc1)C(c1ccccc1)N1CCN(C)CC1 (configuration not stated)
61 | 944 s | O=S(=O)(c1cccc(-c2cn3cc(Cl)ccc3n2)c1)N1CCCCCC1
62 | 1070 s | O=c1c2sccc2n(Cc2nc(-c3ccc(Cl)cc3)no2)c(=O)n1-c1ccccc1F
63 | 1130 s | O=C(Cn1cccc1-c1nc(-c2ccc(Cl)cc2)cs1)N1CCCC1
64 | 1090 s | CSc1cccc(NC(=O)Nc2nc(-c3ccccc3)cs2)c1
65 | 814 s | CN(Cc1ccccc1)C(=O)CCNc1c(-c2cccc(F)c2)nc2cnccn12
66 | 629 s | Cc1cccn2c(=O)cc(CN(C)Cc3ccc(Cl)cc3)nc12
67 | 670 s | COCc1c(C(=O)O)nnn1-c1ccccc1F
